Assay results as given in paper PMC6114103, “17-DMAG inhibits the multiplication of several Babesia species and Theileria equi on in vitro cultures, and Babesia microti in mice” (International Journal for Parasitology: Drugs and Drug …, 2018).

How the values were obtained:
B. bovis (Texas strain) = assay: in vitro multiplication inhibition assay (SYBR Green I fluorescence, 96 h), single drugs and two-drug combinations; format: cell-based, Babesia bovis; conditions: for IC50: Babesia bovis, in Bos taurus, B. bovis, 96 h, triplicate, mean ± SD, read-out: IC50 on in vitro culture of parasites; for Selectivity index MDBK: ratio IC50 MDBK to IC50 B. bovis; for Selectivity index NIH/3T3: ratio IC50 NIH/3T3 to IC50 B. bovis
Description: (§1) Babesia parasite cultures were maintained using a microaerophilic stationary-phase culture system ([Levy and Ristic, 1980]; [Avarzed et al., 1997]; [Igarashi et al., 1998]). Briefly, bovine Babesia parasites were grown in bovine red blood cells (RBC) in the specific complete medium for each species. The medium for B. bovis (Texas strain) contained GIT medium supplemented with 10% bovine serum, while the medium for B. bigemina (Argentina strain) and B. divergens (Germany strain) was Medium 199 and RPMI 1640 medium, respectively, supplemented with 40% bovine serum ([Rizk et al., 2016]). B. caballi (USDA strain) was grown using equine RBC in GIT medium supplemented with 10% equine serum. T. equi (USDA strain) was grown in equine RBC in M199 medium supplemented with 40% equine serum and hypoxanthine (MP Biomedicals, USA) at a final concentration of 13.6 μg/ml. All of the media included 60 U/ml penicillin G, 60 μg/ml streptomycin, and 0.15 μg/ml amphotericin B (Sigma-Aldrich, USA). The cultures were incubated at 37 °C in a humidified chamber with an atmosphere of 5% CO2, 5% O2, and 90% N2.
(§2) The assays were conducted in accordance with the protocol described previously with modification ([Guswanto et al., 2014]). Briefly, the cultures of B. bovis, B. bigemina, B. divergens, B. caballi, and T. equi with a parasitemia of 8%, 3%, 10%, 4%, and 9%, respectively, were harvested and adjusted to 1% parasitemia with fresh RBC before the inhibition assay. The 60 inner wells of a 96-well plate were used in the assay, while the peripheral wells were filled with sterile distillate water to reduce evaporation during incubation. To each well in triplicate, 2.5 μl of infected RBC (5 μl for B. divergens, B. caballi, and T. equi) was added and mixed with a culture medium containing the drug to a total volume of 100 μl. The stock solution of 17-DMAG, DA, and AV was dissolved in a culture medium at various concentrations using two-fold dilution. A culture medium containing DMSO at a final concentration of 0.2% was added to the well with infected RBC as a positive control and to the well with uninfected RBC as a negative control. Furthermore, a drug combination assay was conducted in parallel with the single drug assay at the constant ratio in accordance with the Chou–Talalay method ([Chou, 2006]). In the same plate with a single drug inhibition assay, a two-drug combination (DA+17-DMAG, DA + AV, and 17-DMAG + AV) at concentrations of 0.25 x IC50, 0.5 x IC50, IC50, 2 x IC50, and 4 x IC50 was added to the well containing infected RBC in triplicate. The plate was incubated in a humidified incubator with 5% CO2, 5% O2, and 90% N2. After 96 h, 100 μl of a lysis buffer containing SYBR Green I was added to each well. The plate was wrapped with aluminum foil to avoid direct light exposure and incubated at room temperature. After incubation for 6 h, fluorescence values were measured using a fluorescence spectrophotometer (Fluoroskan Ascent, Thermo Fisher Scientific, USA) with the excitation and emission wavelength at 485 nm and 518 nm, respectively. The fluorescence data were subtracted from the negative control and used to calculate the IC50.
(§3) The IC50 of 17-DMAG, DA, and AV was calculated from the percentage of inhibition on the in vitro multiplication of all tested species using non-linear regression (curve fit), available in GraphPad Prism (GraphPad Software Inc., USA). Combination index (CI) values for the drug combination were calculated using CompuSyn software ([Chou, 2006]). Since the chemotherapy effect is preferable at the highest inhibition, the degree of synergism was determined as the weighted average of CI values using a formula ((1 x IC50) + (2 x IC75) + (3 x IC90) + (4 x IC95))/10 ([Chou, 2006]). The differences among groups regarding the parasitemia, hematology profiles, and body weight in the B. microti–infected mouse model were analyzed using Student's t-test, available in GraphPad Prism software.

MDBK cells = assay: cytotoxicity (drug-exposure viability) assay, CCK-8; format: cell-based, bovine; conditions: for IC50: Bos taurus, MDBK, 24 h exposure, CCK-8, read-out: IC50 on cell line MDBK
Description: (§4) Each medium was supplemented with 10% fetal bovine serum, 0.5% penicillin/streptomycin (Gibco, Life Technologies, USA), and an additional 1% glutamine. The medium was changed every 3–4 days and incubated until approximately 80% confluent. The cells were free from mycoplasma contamination after being checked by staining with DAPI (Sigma-Aldrich, USA). The detachment of cells from the culture flask was done using TrypLE™ Express (Gibco, Life Technologies, USA) after washing two times with Dulbecco's phosphate-buffered saline (DPBS). Subsequently, the counting of viable cells was carried out using a Neubauer improved C-Chip (NanoEntek Inc., Korea) after staining with 0.4% trypan blue solution. The drug-exposure viability assay was performed in accordance with the recommendation of the Cell Counting Kit-8 (CCK-8, Dojindo, Japan). Briefly, the assay was carried out using a 96-well plate at 37 °C in a humidified incubator with 5% CO2. One hundred microliters of cells at a density of 5 × 10^4 cells/ml was seeded per well and allowed to attach to the plate for 24 h. […] The exposure of drugs was carried out for 24 h, followed by the addition of 10 μl of CCK-8. The plate was further incubated for 3 h, and the absorbance was measured at 450 nm using a microplate reader.

T. equi (USDA strain) = assay: in vitro multiplication inhibition assay (SYBR Green I fluorescence, 96 h), single drugs and two-drug combinations; format: cell-based, Theileria equi; conditions: for IC50: Theileria equi, T. equi, 96 h, triplicate, mean ± SD, read-out: IC50 on in vitro culture of parasites; for Selectivity index MDBK: ratio IC50 MDBK to IC50 T. equi; for Selectivity index NIH/3T3: ratio IC50 NIH/3T3 to IC50 T. equi
Description: as §1, §2, §3

NIH/3T3 cells = assay: cytotoxicity (drug-exposure viability) assay, CCK-8; format: cell-based, mouse; conditions: for IC50: Mus musculus, NIH3T3, NIH/3T3, 24 h exposure, CCK-8, read-out: IC50 on cell line NIH/3T3
Description: as §4

B. caballi (USDA strain) = assay: in vitro multiplication inhibition assay (SYBR Green I fluorescence, 96 h), single drugs and two-drug combinations; format: cell-based, Babesia caballi; conditions: for IC50: Babesia caballi, B. caballi, 96 h, triplicate, mean ± SD, read-out: IC50 on in vitro culture of parasites; for Selectivity index MDBK: ratio IC50 MDBK to IC50 B. caballi; for Selectivity index NIH/3T3: ratio IC50 NIH/3T3 to IC50 B. caballi
Description: as §1, §2, §3

[1] = at a concentration of 40 μM, separate assay

SMILES	IC50 (B. bovis (Texas strain)) [µM]	Selectivity index MDBK (B. bovis (Texas strain))	Selectivity index NIH/3T3 (B. bovis (Texas strain))	IC50 (MDBK cells) [µM]	inhibition on MDBK cell viability (MDBK cells; [1])	IC50 (T. equi (USDA strain)) [µM]	Selectivity index MDBK (T. equi (USDA strain))	Selectivity index NIH/3T3 (T. equi (USDA strain))	IC50 (NIH/3T3 cells) [µM]	inhibition on NIH/3T3 cell viability (NIH/3T3 cells; [1])	IC50 (B. caballi (USDA strain)) [µM]	Selectivity index MDBK (B. caballi (USDA strain))	Selectivity index NIH/3T3 (B. caballi (USDA strain))
O=C1C(O)=C([C@H]2CC[C@H](c3ccc(Cl)cc3)CC2)C(=O)c2ccccc21 [AV, atovaquone]	0.0397 ± 0.0024	>1008	>1008	> 40	did not show any inhibition	0.095 ± 0.065	>421	>421	> 40	did not show any inhibition	0.102 ± 0.0141	>393	>393
CO[C@H]1/C=C\C=C(/C)C(=O)NC2=CC(=O)C(NCCN(C)C)=C(C[C@@H](C)C[C@H](OC)[C@H](O)[C@@H](C)/C=C(\C)[C@@H]1OC(N)=O)C2=O [17-DMAG, 17-dimethylaminoethylamino-17-demethoxygeldanamycin]	0.0776 ± 0.0029	113	200	8.8 ± 2	–	0.308 ± 0.0072	29	50	15.5 ± 4	–	0.0885 ± 0.0096	99	175
